In ChEMBL document CHEMBL1133555 (J Med Chem, 2000) one finds Ki data, which are given here for 7 compounds.

Assay [1] deals with Sodium-dependent serotonin transporter (Rattus norvegicus, UniProt P31652). Kind of assay: Binding affinity for serotonin transporter labeled with [125 I]RTI-55.
Assay [2] addresses Norepinephrine transporter (Rattus norvegicus, UniProt Q9WTR4). Kind of assay: Binding affinity for norepinephrine transporter (NET) labeled with [3H]nisoxetine.
For assay [3], the target named is Sodium-dependent dopamine transporter (Rattus norvegicus, UniProt P23977). Kind of assay: Binding affinity for dopamine transporter (DAT) labeled with [125 I]RTI-55.
Sequence of Sodium-dependent dopamine transporter (P23977 whole entry): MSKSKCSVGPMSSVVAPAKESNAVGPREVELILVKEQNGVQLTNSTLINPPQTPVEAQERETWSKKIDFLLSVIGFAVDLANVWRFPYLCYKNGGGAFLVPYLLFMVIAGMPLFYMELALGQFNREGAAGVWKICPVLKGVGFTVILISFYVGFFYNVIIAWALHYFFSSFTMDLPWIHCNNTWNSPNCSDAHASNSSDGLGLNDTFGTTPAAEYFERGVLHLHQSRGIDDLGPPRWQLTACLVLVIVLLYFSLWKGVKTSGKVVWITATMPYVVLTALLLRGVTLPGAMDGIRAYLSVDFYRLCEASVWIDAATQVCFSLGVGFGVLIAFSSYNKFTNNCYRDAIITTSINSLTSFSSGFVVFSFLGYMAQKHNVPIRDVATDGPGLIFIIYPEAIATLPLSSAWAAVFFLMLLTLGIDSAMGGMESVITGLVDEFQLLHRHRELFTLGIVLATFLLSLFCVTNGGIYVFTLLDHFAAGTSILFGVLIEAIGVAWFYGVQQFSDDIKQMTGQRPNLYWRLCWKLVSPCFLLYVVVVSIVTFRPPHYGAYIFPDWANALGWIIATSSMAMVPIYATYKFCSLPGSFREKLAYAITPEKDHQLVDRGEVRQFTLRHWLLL

Sequence of Sodium-dependent serotonin transporter (P31652 whole entry): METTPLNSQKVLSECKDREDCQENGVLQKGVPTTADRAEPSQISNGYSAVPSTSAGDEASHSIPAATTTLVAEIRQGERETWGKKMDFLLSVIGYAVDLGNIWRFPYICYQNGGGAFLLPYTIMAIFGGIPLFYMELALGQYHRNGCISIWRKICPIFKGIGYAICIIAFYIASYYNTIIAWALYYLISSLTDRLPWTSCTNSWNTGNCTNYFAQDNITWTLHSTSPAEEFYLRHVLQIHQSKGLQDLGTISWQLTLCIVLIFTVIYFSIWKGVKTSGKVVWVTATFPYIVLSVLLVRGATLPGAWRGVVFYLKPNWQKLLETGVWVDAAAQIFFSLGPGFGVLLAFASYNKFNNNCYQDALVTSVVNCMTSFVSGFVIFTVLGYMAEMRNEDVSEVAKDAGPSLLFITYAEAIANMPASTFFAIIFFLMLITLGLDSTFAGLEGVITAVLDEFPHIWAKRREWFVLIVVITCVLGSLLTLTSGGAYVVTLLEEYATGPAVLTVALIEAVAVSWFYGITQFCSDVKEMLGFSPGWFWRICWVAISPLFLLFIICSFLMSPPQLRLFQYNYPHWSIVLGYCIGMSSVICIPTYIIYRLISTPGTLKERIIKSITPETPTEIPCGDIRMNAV
Sequence of Norepinephrine transporter (Q9WTR4 whole entry): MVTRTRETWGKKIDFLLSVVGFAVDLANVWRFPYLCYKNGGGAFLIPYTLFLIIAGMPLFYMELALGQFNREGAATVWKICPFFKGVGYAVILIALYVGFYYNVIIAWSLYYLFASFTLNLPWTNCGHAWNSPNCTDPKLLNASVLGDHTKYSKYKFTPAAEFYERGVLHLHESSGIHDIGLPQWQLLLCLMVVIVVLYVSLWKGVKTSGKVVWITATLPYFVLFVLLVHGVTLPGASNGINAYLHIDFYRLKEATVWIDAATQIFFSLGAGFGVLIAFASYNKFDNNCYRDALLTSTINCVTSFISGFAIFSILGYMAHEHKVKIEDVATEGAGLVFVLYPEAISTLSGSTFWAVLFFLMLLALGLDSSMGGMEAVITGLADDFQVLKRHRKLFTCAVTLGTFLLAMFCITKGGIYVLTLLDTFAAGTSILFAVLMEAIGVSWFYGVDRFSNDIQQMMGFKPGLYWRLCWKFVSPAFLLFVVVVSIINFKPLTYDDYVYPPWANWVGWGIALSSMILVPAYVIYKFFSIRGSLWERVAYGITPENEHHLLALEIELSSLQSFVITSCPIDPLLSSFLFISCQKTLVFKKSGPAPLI

Take `CN[C@@H]1CC(c2ccc(Cl)c(Cl)c2)c2cccc(OC)c21` (stereo partly specified): the Ki in assay [1] worked out at 0.108 µM; in assay [2], 0.093 µM; in assay [3], 0.032 µM.

As to `CN[C@@H]1CC(c2ccc(Cl)c(Cl)c2)c2cc(OC)c(OC)cc21` (stereo partly specified), the Ki in assay [1] was 0.061 µM; in assay [2], 0.102 µM; in assay [3] it was 0.0036 µM.

For `CN[C@@H]1CC(c2ccc(Cl)c(Cl)c2)c2c(OC)cccc21` (stereo partly specified), the inhibition constant (Ki) in assay [1] was determined as 0.063 µM; in assay [2], 0.027 µM; in assay [3] it was 0.0017 µM.

Regarding `CN[C@@H]1CC(c2ccc(Cl)c(Cl)c2)c2cc(OC)ccc21` (stereo partly specified), the Ki in assay [1] came out at 0.0065 µM; in assay [2] it was 0.0765 µM; in assay [3], 0.0094 µM.

As for `CN[C@@H]1CC(c2ccc(Cl)c(Cl)c2)c2ccc(OC)cc21` (stereo partly specified), the results for the inhibition constant Ki in assay [1], in assay [2] and in assay [3] were 0.0011 µM, 0.015 µM and 0.0116 µM, respectively.

For `CN[C@@H]1CC(c2ccc(Cl)c(Cl)c2OC)c2ccc(OC)cc21` (stereo partly specified), the Ki is 0.0056 µM in assay [1], 0.122 µM in assay [2] and 0.788 µM in assay [3].

In the case of `CN[C@H]1c2cc(OC)ccc2C(c2ccc(Cl)c(Cl)c2)[C@@H]1O` (stereo partly specified), the Ki in assay [1] stood at 0.0081 µM; in assay [2], 1.69 µM; in assay [3], 1.13 µM.

As usually defined, the Ki is a measure of affinity in units of concentration, obtained from inhibition or displacement.
